System: Genes belonging to other category
Assay: DNA chip mRNA expression in yeast, genes belonging to other category (Table 9)
Type: cell-based, Saccharomyces cerevisiae S288C
In short: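 Chemical exposure: 2 h, log-phase S. cerevisiae S288C, YPD, 25° C., dose set to inhibit growth without death. Profiling: mRNA labeled by reverse transcription with Cy3- or Cy5-dUTP, hybridized to whole-genome array. Output: fluorescence ratio against untreated culture.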

Substance: manganese ethylenebis(dithiocarbamate) [(8)]
- The level of expressed mRNA in the presence of chemical substance/The level of expressed mRNA in the absence of chemical substance (yeast gene YAR010C): 1.3
- The level of expressed mRNA in the presence of chemical substance/The level of expressed mRNA in the absence of chemical substance (yeast gene YBL005W-A): 1.0
- The level of expressed mRNA in the presence of chemical substance/The level of expressed mRNA in the absence of chemical substance (yeast gene YBL041W): 1.7
- The level of expressed mRNA in the presence of chemical substance/The level of expressed mRNA in the absence of chemical substance (yeast gene YBL043W): 2.1
- The level of expressed mRNA in the presence of chemical substance/The level of expressed mRNA in the absence of chemical substance (yeast gene YBL078C): 1.6
- The level of expressed mRNA in the presence of chemical substance/The level of expressed mRNA in the absence of chemical substance (yeast gene YBR214W): 0.7
- The level of expressed mRNA in the presence of chemical substance/The level of expressed mRNA in the absence of chemical substance (yeast gene YCL020W): 1.7
- The level of expressed mRNA in the presence of chemical substance/The level of expressed mRNA in the absence of chemical substance (yeast gene YCL027W): 0.6
- The level of expressed mRNA in the presence of chemical substance/The level of expressed mRNA in the absence of chemical substance (yeast gene YCR004C): 1.2
- The level of expressed mRNA in the presence of chemical substance/The level of expressed mRNA in the absence of chemical substance (yeast gene YCR071C): 0.9
- The level of expressed mRNA in the presence of chemical substance/The level of expressed mRNA in the absence of chemical substance (yeast gene YCR088W): 0.5
- The level of expressed mRNA in the presence of chemical substance/The level of expressed mRNA in the absence of chemical substance (yeast gene YDL008W): 1.2
- The level of expressed mRNA in the presence of chemical substance/The level of expressed mRNA in the absence of chemical substance (yeast gene YDL238C): 5.8
- The level of expressed mRNA in the presence of chemical substance/The level of expressed mRNA in the absence of chemical substance (yeast gene YDR055W): 1.6
- The level of expressed mRNA in the presence of chemical substance/The level of expressed mRNA in the absence of chemical substance (yeast gene YDR084C): 0.7
- The level of expressed mRNA in the presence of chemical substance/The level of expressed mRNA in the absence of chemical substance (yeast gene YDR085C): 2.0
- The level of expressed mRNA in the presence of chemical substance/The level of expressed mRNA in the absence of chemical substance (yeast gene YDR104C): 1.3
- The level of expressed mRNA in the presence of chemical substance/The level of expressed mRNA in the absence of chemical substance (yeast gene YDR115W): 1.3
- The level of expressed mRNA in the presence of chemical substance/The level of expressed mRNA in the absence of chemical substance (yeast gene YDR259C): 1.4
- The level of expressed mRNA in the presence of chemical substance/The level of expressed mRNA in the absence of chemical substance (yeast gene YDR315C): 1.4
- The level of expressed mRNA in the presence of chemical substance/The level of expressed mRNA in the absence of chemical substance (yeast gene YDR358W): 1.2
- The level of expressed mRNA in the presence of chemical substance/The level of expressed mRNA in the absence of chemical substance (yeast gene YDR388W): 0.8
- The level of expressed mRNA in the presence of chemical substance/The level of expressed mRNA in the absence of chemical substance (yeast gene YDR432W): 0.5
- The level of expressed mRNA in the presence of chemical substance/The level of expressed mRNA in the absence of chemical substance (yeast gene YDR481C): 1.0
- The level of expressed mRNA in the presence of chemical substance/The level of expressed mRNA in the absence of chemical substance (yeast gene YDR510W): 1.5
- The level of expressed mRNA in the presence of chemical substance/The level of expressed mRNA in the absence of chemical substance (yeast gene YEL042W): 0.7
- The level of expressed mRNA in the presence of chemical substance/The level of expressed mRNA in the absence of chemical substance (yeast gene YEL066W): 1.4
- The level of expressed mRNA in the presence of chemical substance/The level of expressed mRNA in the absence of chemical substance (yeast gene YER039C): 0.7
- The level of expressed mRNA in the presence of chemical substance/The level of expressed mRNA in the absence of chemical substance (yeast gene YER107C): 0.8
- The level of expressed mRNA in the presence of chemical substance/The level of expressed mRNA in the absence of chemical substance (yeast gene YER130C): 1.2
- The level of expressed mRNA in the presence of chemical substance/The level of expressed mRNA in the absence of chemical substance (yeast gene YFL022C): 0.8
- The level of expressed mRNA in the presence of chemical substance/The level of expressed mRNA in the absence of chemical substance (yeast gene YFL028C): 1.5
- The level of expressed mRNA in the presence of chemical substance/The level of expressed mRNA in the absence of chemical substance (yeast gene YFL043C): 1.0
- The level of expressed mRNA in the presence of chemical substance/The level of expressed mRNA in the absence of chemical substance (yeast gene YGL158W): 1.3
- The level of expressed mRNA in the presence of chemical substance/The level of expressed mRNA in the absence of chemical substance (yeast gene YGL229C): 0.7
- The level of expressed mRNA in the presence of chemical substance/The level of expressed mRNA in the absence of chemical substance (yeast gene YGR136W): 1.3
- The level of expressed mRNA in the presence of chemical substance/The level of expressed mRNA in the absence of chemical substance (yeast gene YGR189C): 1.0
- The level of expressed mRNA in the presence of chemical substance/The level of expressed mRNA in the absence of chemical substance (yeast gene YGR213C): 2.0
- The level of expressed mRNA in the presence of chemical substance/The level of expressed mRNA in the absence of chemical substance (yeast gene YGR257C): 1.0
- The level of expressed mRNA in the presence of chemical substance/The level of expressed mRNA in the absence of chemical substance (yeast gene YHR004C): 0.9
- The level of expressed mRNA in the presence of chemical substance/The level of expressed mRNA in the absence of chemical substance (yeast gene YHR071W): 1.7
- The level of expressed mRNA in the presence of chemical substance/The level of expressed mRNA in the absence of chemical substance (yeast gene YHR139C): 1.3
- The level of expressed mRNA in the presence of chemical substance/The level of expressed mRNA in the absence of chemical substance (yeast gene YHR142W): 1.3
- The level of expressed mRNA in the presence of chemical substance/The level of expressed mRNA in the absence of chemical substance (yeast gene YIL123W): 0.6
- The level of expressed mRNA in the presence of chemical substance/The level of expressed mRNA in the absence of chemical substance (yeast gene YIL140W): 0.7
- The level of expressed mRNA in the presence of chemical substance/The level of expressed mRNA in the absence of chemical substance (yeast gene YJL073W): 1.0
- The level of expressed mRNA in the presence of chemical substance/The level of expressed mRNA in the absence of chemical substance (yeast gene YJL089W): 1.1
- The level of expressed mRNA in the presence of chemical substance/The level of expressed mRNA in the absence of chemical substance (yeast gene YJL116C): 1.8
- The level of expressed mRNA in the presence of chemical substance/The level of expressed mRNA in the absence of chemical substance (yeast gene YJR004C): 0.4
- The level of expressed mRNA in the presence of chemical substance/The level of expressed mRNA in the absence of chemical substance (yeast gene YJR086W): 1.1

Reference: US8192962B2, “Processes for detecting toxic substances” (Daikin Industries, Ltd., priority 2001, dated 2012)
